Assay results: the supplement of paper PMC12463676, “Small-molecule dissolution of stress granules by redox modulation benefits ALS models” (Nature Chemical Biology, 2025)

Each target was assayed with NC(=O)CCCCC1CCSS1 [lipoamide] (assay: thermal stability z-score vs DMSO; higher = more thermally stabilized by treatment). Conditions: HeLa; lipoamide concentration 100 µM; arsenate co-treatment: 1 mM arsenate 1 h.
Procedure: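 Cellular thermal proteome profiling in HeLa cells. Cells were treated with 100 µM lipoamide for 1 h, with or without 1 mM arsenate for a further 1 h, then heated to ten temperatures (37-66.3 °C), and soluble protein was quantified by TMT mass spectrometry relative to 0.1% DMSO controls. The thermal stability score (sum of log2 fold changes minus the abundance score) was transformed to a z-score; mean of n = 3 experiments.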
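Further: each temperature applied for 3 min, abundance score taken as mean log2 fold change at the two lowest temperatures, z-score obtained by mean subtraction and division by SD.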

Chain of UniProt Q5VV42 (Q5VV42 whole entry): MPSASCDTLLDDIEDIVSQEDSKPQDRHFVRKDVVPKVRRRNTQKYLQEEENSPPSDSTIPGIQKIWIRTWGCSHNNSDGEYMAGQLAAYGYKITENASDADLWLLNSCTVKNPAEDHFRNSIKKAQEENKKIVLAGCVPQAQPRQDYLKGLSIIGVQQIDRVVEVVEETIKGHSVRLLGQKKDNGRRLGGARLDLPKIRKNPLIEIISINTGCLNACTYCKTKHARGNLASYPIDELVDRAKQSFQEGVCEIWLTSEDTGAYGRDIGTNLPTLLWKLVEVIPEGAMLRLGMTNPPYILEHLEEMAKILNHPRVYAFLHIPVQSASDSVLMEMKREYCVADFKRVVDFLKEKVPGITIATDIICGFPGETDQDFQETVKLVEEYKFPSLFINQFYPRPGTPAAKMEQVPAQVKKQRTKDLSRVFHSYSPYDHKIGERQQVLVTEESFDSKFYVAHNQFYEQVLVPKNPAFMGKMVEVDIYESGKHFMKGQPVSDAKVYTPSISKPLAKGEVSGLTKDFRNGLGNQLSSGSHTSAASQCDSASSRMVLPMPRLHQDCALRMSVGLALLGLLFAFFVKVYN
Chain of UniProt Q9Y3D8 (Q9Y3D8 whole entry): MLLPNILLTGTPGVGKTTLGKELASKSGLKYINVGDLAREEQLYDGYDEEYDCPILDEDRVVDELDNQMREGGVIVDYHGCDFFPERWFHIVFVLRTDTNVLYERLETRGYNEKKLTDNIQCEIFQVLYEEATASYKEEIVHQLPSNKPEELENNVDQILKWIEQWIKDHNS
Chain of UniProt Q53H80 (Q53H80 whole entry): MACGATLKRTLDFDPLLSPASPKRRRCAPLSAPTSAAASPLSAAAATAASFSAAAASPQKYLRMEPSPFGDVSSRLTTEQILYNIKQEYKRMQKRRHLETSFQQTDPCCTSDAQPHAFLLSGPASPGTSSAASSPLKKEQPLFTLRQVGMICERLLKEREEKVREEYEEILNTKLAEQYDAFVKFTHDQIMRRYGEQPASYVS
Chain of UniProt Q9NSD9 (Q9NSD9 whole entry): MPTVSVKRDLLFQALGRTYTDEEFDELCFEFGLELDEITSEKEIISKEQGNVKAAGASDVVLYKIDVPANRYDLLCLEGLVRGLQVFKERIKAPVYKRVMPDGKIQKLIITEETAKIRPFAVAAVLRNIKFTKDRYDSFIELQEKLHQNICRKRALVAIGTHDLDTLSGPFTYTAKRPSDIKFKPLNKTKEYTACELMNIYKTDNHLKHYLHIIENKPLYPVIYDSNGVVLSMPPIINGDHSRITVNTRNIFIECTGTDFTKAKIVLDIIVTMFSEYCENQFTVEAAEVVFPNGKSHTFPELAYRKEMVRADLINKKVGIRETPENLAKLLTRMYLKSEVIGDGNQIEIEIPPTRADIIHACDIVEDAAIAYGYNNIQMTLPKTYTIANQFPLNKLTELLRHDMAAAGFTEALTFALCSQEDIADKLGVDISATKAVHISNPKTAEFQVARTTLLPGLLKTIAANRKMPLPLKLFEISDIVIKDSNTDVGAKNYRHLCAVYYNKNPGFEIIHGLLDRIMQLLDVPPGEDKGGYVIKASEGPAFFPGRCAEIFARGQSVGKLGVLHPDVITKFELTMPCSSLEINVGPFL
Chain of UniProt Q9H1I8 (Q9H1I8 whole entry): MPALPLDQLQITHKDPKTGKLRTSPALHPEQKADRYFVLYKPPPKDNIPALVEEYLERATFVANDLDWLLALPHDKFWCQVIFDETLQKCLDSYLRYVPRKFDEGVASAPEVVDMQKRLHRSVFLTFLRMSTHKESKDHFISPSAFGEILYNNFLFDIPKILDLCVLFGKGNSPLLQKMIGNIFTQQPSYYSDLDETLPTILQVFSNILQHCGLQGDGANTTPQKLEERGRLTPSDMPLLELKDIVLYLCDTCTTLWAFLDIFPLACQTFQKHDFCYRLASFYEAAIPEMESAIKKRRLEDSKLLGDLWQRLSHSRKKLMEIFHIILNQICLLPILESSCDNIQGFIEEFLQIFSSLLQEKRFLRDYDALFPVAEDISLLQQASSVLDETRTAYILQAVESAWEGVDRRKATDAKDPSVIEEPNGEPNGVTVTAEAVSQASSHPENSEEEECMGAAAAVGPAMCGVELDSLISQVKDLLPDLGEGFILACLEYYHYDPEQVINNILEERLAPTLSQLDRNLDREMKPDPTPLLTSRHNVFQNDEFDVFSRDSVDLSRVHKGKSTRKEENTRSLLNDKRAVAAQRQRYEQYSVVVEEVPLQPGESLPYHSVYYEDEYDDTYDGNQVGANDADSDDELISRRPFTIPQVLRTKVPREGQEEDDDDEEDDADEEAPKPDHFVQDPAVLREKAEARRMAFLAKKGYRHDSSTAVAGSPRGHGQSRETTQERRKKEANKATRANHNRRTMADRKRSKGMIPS
Chain of UniProt Q9NUL3 (Q9NUL3 whole entry): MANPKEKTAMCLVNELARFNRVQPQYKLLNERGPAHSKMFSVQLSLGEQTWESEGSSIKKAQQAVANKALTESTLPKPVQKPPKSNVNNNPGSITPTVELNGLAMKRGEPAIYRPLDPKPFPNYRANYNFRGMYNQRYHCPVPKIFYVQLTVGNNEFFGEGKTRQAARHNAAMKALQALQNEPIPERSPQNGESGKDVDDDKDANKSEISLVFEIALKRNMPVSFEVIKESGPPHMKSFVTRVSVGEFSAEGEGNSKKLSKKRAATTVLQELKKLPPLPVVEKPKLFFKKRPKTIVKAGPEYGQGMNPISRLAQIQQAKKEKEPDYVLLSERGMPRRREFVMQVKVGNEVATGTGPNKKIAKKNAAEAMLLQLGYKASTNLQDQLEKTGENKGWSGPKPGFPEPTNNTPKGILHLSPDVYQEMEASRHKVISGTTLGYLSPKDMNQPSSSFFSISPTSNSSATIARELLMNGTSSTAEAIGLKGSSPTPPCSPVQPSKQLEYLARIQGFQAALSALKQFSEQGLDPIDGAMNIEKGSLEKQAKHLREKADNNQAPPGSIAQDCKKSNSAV
Chain of UniProt Q96FS4 (Q96FS4 whole entry): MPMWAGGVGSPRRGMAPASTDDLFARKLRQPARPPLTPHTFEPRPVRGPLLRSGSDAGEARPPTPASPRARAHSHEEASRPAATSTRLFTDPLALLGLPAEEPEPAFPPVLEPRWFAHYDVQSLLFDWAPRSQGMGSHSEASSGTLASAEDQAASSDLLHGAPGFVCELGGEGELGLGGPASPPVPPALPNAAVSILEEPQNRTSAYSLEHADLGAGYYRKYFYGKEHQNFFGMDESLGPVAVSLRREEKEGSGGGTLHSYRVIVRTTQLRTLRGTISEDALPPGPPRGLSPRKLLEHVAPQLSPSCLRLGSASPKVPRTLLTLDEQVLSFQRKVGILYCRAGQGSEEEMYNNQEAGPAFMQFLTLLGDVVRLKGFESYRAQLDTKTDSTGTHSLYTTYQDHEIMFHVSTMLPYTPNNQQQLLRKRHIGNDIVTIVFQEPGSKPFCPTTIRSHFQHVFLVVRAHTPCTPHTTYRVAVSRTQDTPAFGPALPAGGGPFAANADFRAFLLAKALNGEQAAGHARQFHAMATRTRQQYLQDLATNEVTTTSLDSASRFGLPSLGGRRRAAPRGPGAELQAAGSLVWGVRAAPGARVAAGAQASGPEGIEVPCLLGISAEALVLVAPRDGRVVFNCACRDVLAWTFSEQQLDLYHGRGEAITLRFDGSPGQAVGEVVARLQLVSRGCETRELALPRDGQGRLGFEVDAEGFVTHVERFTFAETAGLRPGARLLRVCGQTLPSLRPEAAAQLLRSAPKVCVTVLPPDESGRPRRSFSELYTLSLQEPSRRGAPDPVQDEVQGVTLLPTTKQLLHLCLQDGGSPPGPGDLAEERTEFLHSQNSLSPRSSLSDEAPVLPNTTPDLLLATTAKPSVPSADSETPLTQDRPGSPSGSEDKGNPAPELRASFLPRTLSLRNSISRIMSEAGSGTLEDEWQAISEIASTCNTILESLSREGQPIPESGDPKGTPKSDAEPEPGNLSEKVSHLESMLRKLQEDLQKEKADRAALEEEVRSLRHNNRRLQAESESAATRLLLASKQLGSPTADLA
Chain of UniProt Q9UNS2 (Q9UNS2 whole entry): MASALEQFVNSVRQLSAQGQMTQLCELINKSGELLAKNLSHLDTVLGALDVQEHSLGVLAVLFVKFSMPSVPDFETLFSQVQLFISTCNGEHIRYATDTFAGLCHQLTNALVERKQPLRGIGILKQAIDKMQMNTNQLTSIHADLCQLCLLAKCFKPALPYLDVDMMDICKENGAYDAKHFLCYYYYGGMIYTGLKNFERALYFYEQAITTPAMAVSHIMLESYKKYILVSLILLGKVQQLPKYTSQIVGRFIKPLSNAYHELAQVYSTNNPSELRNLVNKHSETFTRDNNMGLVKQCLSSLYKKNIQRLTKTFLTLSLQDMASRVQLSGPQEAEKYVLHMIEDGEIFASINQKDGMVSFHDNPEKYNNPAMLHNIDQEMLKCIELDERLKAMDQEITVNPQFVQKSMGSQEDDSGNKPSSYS
Chain of UniProt Q9Y5K8 (Q9Y5K8 whole entry): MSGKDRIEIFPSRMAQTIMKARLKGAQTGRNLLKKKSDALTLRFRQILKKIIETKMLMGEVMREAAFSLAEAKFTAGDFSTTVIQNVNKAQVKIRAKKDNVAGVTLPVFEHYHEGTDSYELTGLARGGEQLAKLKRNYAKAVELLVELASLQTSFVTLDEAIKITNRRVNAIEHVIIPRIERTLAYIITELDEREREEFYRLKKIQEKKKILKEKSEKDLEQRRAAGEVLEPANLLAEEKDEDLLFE
Chain of UniProt Q9BX68 (Q9BX68 whole entry): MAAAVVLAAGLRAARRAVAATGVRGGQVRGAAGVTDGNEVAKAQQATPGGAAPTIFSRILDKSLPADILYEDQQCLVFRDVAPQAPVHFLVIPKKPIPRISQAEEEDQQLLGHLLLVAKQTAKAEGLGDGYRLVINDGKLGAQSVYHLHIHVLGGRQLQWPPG
Chain of UniProt Q13158 (Q13158 whole entry): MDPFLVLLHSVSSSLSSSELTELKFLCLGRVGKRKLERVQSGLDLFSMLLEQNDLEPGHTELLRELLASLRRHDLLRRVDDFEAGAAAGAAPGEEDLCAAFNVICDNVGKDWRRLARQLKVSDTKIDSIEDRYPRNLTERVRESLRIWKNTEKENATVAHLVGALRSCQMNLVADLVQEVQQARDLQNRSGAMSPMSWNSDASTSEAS

Target	thermal stability z-score
METAP1 (UniProt P53582)	-0.0942
PSMD5 (UniProt Q16401)	0.166
HINT2 (UniProt Q9BX68)	-0.459
CDKAL1 (UniProt Q5VV42)	1.09
AK6 (UniProt Q9Y3D8)	-0.665
CHAF1A (UniProt Q13111)	0.0368
STAU2 (UniProt Q9NUL3)	-0.183
CLTA (UniProt P09496)	1.35
PAF1 (UniProt Q8N7H5)	0.0739
TULP3 (UniProt O75386)	-0.00846
SLC29A1 (UniProt Q99808)	0.272
NT5DC3 (UniProt Q86UY8)	0.036
LRRC8D (UniProt Q7L1W4)	0.38
MRPL17 (UniProt Q9NRX2)	0.0551
EIF2AK1 (UniProt Q9BQI3)	-0.867
CHCHD1 (UniProt Q96BP2)	0.43
FARSB (UniProt Q9NSD9)	0.262
OGDH (UniProt Q02218)	0.182
PREB (UniProt Q9HCU5)	-0.337
WASF1 (UniProt Q92558)	-0.121
ASCC2 (UniProt Q9H1I8)	-0.0905
PI4K2A (UniProt Q9BTU6)	0.0172
FADD (UniProt Q13158)	-0.805
AKIRIN2 (UniProt Q53H80)	0.0163

Target	thermal stability z-score
SIPA1 (UniProt Q96FS4)	-0.295
ATP6V1D (UniProt Q9Y5K8)	0.546
CAPN2 (UniProt P17655)	0.345
NEDD4 (UniProt P46934)	0.296
U2AF1L5|U2AF1	-0.511
SPATS2L (UniProt Q9NUQ6)	0.296
NECTIN2 (UniProt Q92692)	0.434
ANKRD28 (UniProt O15084)	-0.25
COPS3 (UniProt Q9UNS2)	0.508
DUS3L (UniProt Q96G46)	-0.321
NFAT5 (UniProt O94916)	0.48
CARD19 (UniProt Q96LW7)	0.507
TTC4 (UniProt O95801)	-0.0544
RNH1 (UniProt P13489)	0.376
LHPP (UniProt Q9H008)	1.03
NUP62 (UniProt P37198)	-0.129
NT5C (UniProt Q8TCD5)	-0.442
PCM1 (UniProt Q15154)	-0.0188
TPD52L2 (UniProt O43399)	1.01
DNTTIP2 (UniProt Q5QJE6)	0.201
CRNKL1 (UniProt Q9BZJ0)	0.288
CDC42 (UniProt P60953)	0.932
SRP72 (UniProt O76094)	-0.316
GLA (UniProt P06280)	-1.1

Target	thermal stability z-score
G3V3G9 (UniProt P40855)	-0.319
IRGQ (UniProt Q8WZA9)	-0.249
WDR12 (UniProt Q9GZL7)	0.771
C4BPA (UniProt P04003)	-5.7
TTI2 (UniProt Q6NXR4)	-1.12
SF3B4 (UniProt Q15427)	0.152
WAPL (UniProt Q7Z5K2)	0.0171
SLC25A20 (UniProt O43772)	2.62
CCDC137 (UniProt Q6PK04)	-0.531
PSEN2 (UniProt P49810)	-0.815
DROSHA (UniProt Q9NRR4)	-0.124
USP5 (UniProt P45974)	0.0243
DST (UniProt Q03001)	0.0624
VPS26B (UniProt Q4G0F5)	0.123
TMED3 (UniProt Q9Y3Q3)	-0.694
ERI1 (UniProt Q8IV48)	0.0943
RBBP9 (UniProt O75884)	0.308
GIT1 (UniProt Q9Y2X7)	0.346
ATIC (UniProt P31939)	0.0982
CFAP97 (UniProt Q9P2B7)	-1
SMPD4 (UniProt Q9NXE4)	0.624
COMMD9 (UniProt Q9P000)	-0.221
KIAA0907 (UniProt Q7Z7F0)	-0.462

Same assay, conditions: HeLa; lipoamide concentration 100 µM; arsenate co-treatment: none

Target	thermal stability z-score
METAP1 (UniProt P53582)	-0.673
PSMD5 (UniProt Q16401)	0.024
HINT2 (UniProt Q9BX68)	-0.337
CDKAL1 (UniProt Q5VV42)	0.835
AK6 (UniProt Q9Y3D8)	-0.877
CHAF1A (UniProt Q13111)	0.138
STAU2 (UniProt Q9NUL3)	-0.124
CLTA (UniProt P09496)	1.54
PAF1 (UniProt Q8N7H5)	-0.631
TULP3 (UniProt O75386)	0.00888
SLC29A1 (UniProt Q99808)	0.818
NT5DC3 (UniProt Q86UY8)	-0.0265
LRRC8D (UniProt Q7L1W4)	-0.0451
MRPL17 (UniProt Q9NRX2)	0.00699
EIF2AK1 (UniProt Q9BQI3)	0.23
CHCHD1 (UniProt Q96BP2)	0.138
FARSB (UniProt Q9NSD9)	-0.0911
OGDH (UniProt Q02218)	0.151

Target	thermal stability z-score
PREB (UniProt Q9HCU5)	-0.353
WASF1 (UniProt Q92558)	-0.0242
ASCC2 (UniProt Q9H1I8)	0.388
PI4K2A (UniProt Q9BTU6)	-0.189
FADD (UniProt Q13158)	0.901
AKIRIN2 (UniProt Q53H80)	-0.00376
SIPA1 (UniProt Q96FS4)	0.0519
ATP6V1D (UniProt Q9Y5K8)	0.0685
CAPN2 (UniProt P17655)	0.208
NEDD4 (UniProt P46934)	0.196
U2AF1L5|U2AF1	-0.0589
SPATS2L (UniProt Q9NUQ6)	0.638
NECTIN2 (UniProt Q92692)	0.196
ANKRD28 (UniProt O15084)	-0.0938
COPS3 (UniProt Q9UNS2)	0.201
DUS3L (UniProt Q96G46)	-0.548
NFAT5 (UniProt O94916)	0.0594
